In PubChem BioAssay (NCI):
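1) Cells in 96-well plates. 2) Compound, 48 h, 5 concentrations. 3) Linear interpolation between surrounding doses. 4) Unreached endpoint = highest concentration. Here, GI50 denotes the concentration required for 50% inhibition of growth. The concentration for full growth arrest is given as TGI.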

Key:
Assay in all cases: NCI anticancer screen, dose series, 48 h
[1] = system: HL-60(TB) leukemia
[2] = system: HCT-116 colon
[3] = system: HOP-62 NSCLC
[4] = system: CCRF-CEM leukemia
[5] = system: SR leukemia
[6] = system: SK-MEL-5 melanoma
[7] = system: HT29 colon
[8] = system: MDA-MB-435
[9] = system: SF-268 CNS
[10] = system: SW-620 colon
[11] = system: MDA-MB-231 breast
[12] = system: DU-145 prostate
[13] = system: HCC-2998 colon
[14] = system: U251 CNS
[15] = system: HOP-92 NSCLC
[16] = system: COLO 205 colon
[17] = system: SN12C renal
[18] = system: UO-31 renal
[19] = system: UACC-257 melanoma
[20] = system: OVCAR-5 ovarian
[21] = system: M14 melanoma
[22] = system: OVCAR-8 ovarian
[23] = system: NCI-H460 lung
[24] = system: NCI-H522 lung
[25] = system: EKVX NSCLC
[26] = system: K-562 leukemia
[27] = system: KM12 colon
[28] = system: NCI-H226 lung
[29] = system: A498 renal
[30] = system: MALME-3M melanoma

O=C(NO)c1ccc(-c2nc3ccc4[nH]ncc4c3c3c2CCCC3)cc1
TGI [1]: 2980 nM | GI50 [2]: 119 nM | TGI [2]: 33800 nM | GI50 [3]: 253 nM | TGI [3]: 5210 nM | GI50 [4]: 361 nM | TGI [4]: > 100000 nM | GI50 [5]: 117 nM | GI50 [6]: 240 nM | TGI [6]: 1020 nM | GI50 [7]: 455 nM | TGI [7]: 9840 nM | GI50 [8]: 340 nM | TGI [8]: 1490 nM | GI50 [9]: 298 nM | TGI [9]: 1600 nM | GI50 [10]: 245 nM | TGI [10]: > 77900 nM | GI50 [11]: 350 nM | TGI [11]: 1490 nM | GI50 [12]: 407 nM | TGI [12]: > 34900 nM | GI50 [13]: 300 nM | TGI [13]: 1390 nM | GI50 [14]: 287 nM | TGI [14]: 4970 nM | GI50 [15]: 426 nM | TGI [15]: 6110 nM | GI50 [16]: 255 nM | TGI [16]: 1480 nM | GI50 [17]: 281 nM | TGI [17]: 3390 nM | GI50 [18]: 599 nM | TGI [18]: 8480 nM | GI50 [19]: 1290 nM | TGI [19]: > 23200 nM | GI50 [20]: 479 nM | TGI [20]: 3930 nM | GI50 [21]: 415 nM | TGI [21]: 1780 nM | GI50 [22]: 300 nM | TGI [22]: 13500 nM | GI50 [23]: 486 nM | TGI [23]: 2490 nM | GI50 [24]: 154 nM | TGI [24]: 990 nM | GI50 [25]: 480 nM | TGI [25]: 3260 nM | GI50 [26]: 495 nM | TGI [26]: > 100000 nM | GI50 [27]: 391 nM | TGI [27]: 13700 nM | GI50 [28]: 296 nM | TGI [28]: 3090 nM | GI50 [29]: 254 nM | TGI [29]: 2640 nM | GI50 [30]: 513 nM | TGI [30]: 1730 nM
